The target in this test is wt human LRRK2, catalytic site (Homo sapiens (Human), UniProt Q5S007). The test can be described thus: TR-FRET LanthaScreen Tb Kinase Activity Assay (LRRK2 kinase inhibition). Format: biochemical. Particulars: 2 nM wt human LRRK2, 400 nM fluorescein-ERM (LRRKtide) peptide, 38 μM ATP, 120 minutes at room temperature. In outline: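 LanthaScreen TR-FRET with 2 nM wt human LRRK2 catalytic site, 400 nM fluorescein-ERM (LRRKtide) peptide and 38 µM ATP in Kinase Buffer A; 120 min at room temperature. Phosphorylation detected with EDTA and Tb-anti-pLRRKtide after 60 min; IC50 from emission ratios.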
Sequence of wt human LRRK2, catalytic site (Q5S007 1879-2138): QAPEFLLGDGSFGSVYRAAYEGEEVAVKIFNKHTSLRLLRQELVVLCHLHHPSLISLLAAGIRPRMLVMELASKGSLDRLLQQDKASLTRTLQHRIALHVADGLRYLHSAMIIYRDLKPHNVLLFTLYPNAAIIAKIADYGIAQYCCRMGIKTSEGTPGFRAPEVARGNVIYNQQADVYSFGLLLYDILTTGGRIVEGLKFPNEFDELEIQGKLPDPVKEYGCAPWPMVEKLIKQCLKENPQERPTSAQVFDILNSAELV
A general note: Time-resolved FRET reads energy transfer from a long-lived donor to a nearby acceptor.

pIC50: −log10 of the molar value. A value given as a limit tells only on which side of the number the result lay.

In the case of `CCNc1nc(Nc2cccc3c2cnn3CCS(C)(=O)=O)ncc1C(F)(F)F` [Example 186, N^4-ethyl-N^2-[1-(2-methylsulfonylethyl)indazol-4-yl]-5-(trifluoromethyl) pyrimidine-2,4-diamine], the pIC50 (usually −log10 of the IC50, conventionally taken in molar units) is over 7.30. In turn, `CN(C)c1nc(Nc2cccc3c2cnn3CC#N)ncc1C(F)(F)F` [Example 107, 2-(4-((4-(dimethylamino)-5-(trifluoromethyl)pyrimidin-2-yl)amino)-1H-indazol-1-yl)acetonitrile] showed a pIC50 of over 7.30. For `CNc1nc(Nc2cc(F)cc3[nH]ncc23)ncc1C(F)(F)F` [Example 25, N2-(6-fluoro-1H-indazol-4-yl)-N4-methyl-5-(trifluoromethyl)pyrimidine-2,4-diamine] the value was over 7.30; for `COCCS(=O)(=O)n1ncc2c(Nc3ncc(C(F)(F)F)c(NC4CC4)n3)cccc21` [Example 136, N^4-cyclopropyl-N^2-(1-((2-methoxyethyl)sulfonyl)-1H-indazol-4-yl)-5-(trifluoromethyl)pyrimidine-2,4-diamine], over 7.30; for `CCn1ncc2c(Nc3ncc(C(F)(F)F)c(NC)n3)cccc21` [Example 98, N2-(1-ethyl-1H-indazol-4-yl)-N4-methyl-5-(trifluoromethyl)pyrimidine-2,4 diamine], over 7.30. Compound `CNc1nc(Nc2cc(F)cc3c2cnn3CC#N)ncc1C(F)(F)F` [Example 91, 2-(6-fluoro-4-((4-(methylamino)-5-(trifluoromethyl)pyrimidin-2-yl)amino)-1H-indazol-1-yl)acetonitrile] showed a pIC50 of over 7.30. The figure for `CNc1nc(Nc2cccc3c2cnn3S(=O)(=O)C2CC2)ncc1C(F)(F)F` [Example 33, N2-(1-(cyclopropylsulfonyl)-1H-indazol-4-yl)-N4-methyl-5-(trifluoromethyl)pyrimidine-2,4-diamine] is over 7.30; for `CNc1nc(Nc2ccc(/C(C)=C/C(=O)N3CCOCC3)c3c2cnn3C)ncc1C(F)(F)F` [Example 59, (E)-3-(1-methyl-4-((4-(methylamino)-5-(trifluoromethyl)pyrimidin-2-yl)amino)-1H-indazol-7-yl)-1-morpholinobut-2-en-1-one] it is over 7.30; for `CNc1nc(Nc2cnn3cc(C#N)ccc23)ncc1C(F)(F)F` [Example 119, 3-((4-(methylamino)-5-(trifluoromethyl)pyrimidin-2-yl)amino)pyrazolo[1,5-a]pyridine-6-carbonitrile] it is over 7.30. Compound `FC(F)(F)c1cnc(Nc2ccc3c4c2cnn4CCO3)nc1NC1CC1` [Example 179, N^4-cyclopropyl-N^2-(2,3-dihydro-[1,4]oxazino[2,3,4-hi]indazol-7-yl)-5-(trifluoromethyl)pyrimidine-2,4-diamine] showed a negative-log IC50 (pIC50) of over 7.30. Compound `CCNc1nc(Nc2ccc(F)c3c2cnn3CC(C)(C)O)nc2[nH]nc(C)c12` [Example 205, 1-[4-[[4-(ethylamino)-3-methyl-1H-pyrazolo[3,4-d]pyrimidin-6-yl]amino]-7-fluoro-indazol-1-yl]-2-methyl-propan-2-ol] had a negative logarithm of the IC50 (pIC50) of over 7.30. Compound `CNc1nc(Nc2cccc3c2cnn3C)ncc1Cl` [Example 79, 5-chloro-N4-methyl-N2-(1-methyl-1H-indazol-4-yl)pyrimidine-2,4-diamine] had a negative logarithm of the IC50 (pIC50) of over 7.30. Compound `FC(F)(F)c1cnc(Nc2cccc3c2cnn3C2CC2)nc1NC1CC1` [Example 190, N^4-cyclopropyl-N^2-(1-cyclopropyl-1H-indazol-4-yl)-5-(trifluoromethyl) pyrimidine-2,4-diamine] showed a negative-log IC50 (pIC50) of over 7.30. As for `CCNc1nc(Nc2cccc3c2cnn3C)ncc1Cl` [Example 70, 5-chloro-N4-ethyl-N2-(1-methyl-1H-indazol-4-yl)pyrimidine-2,4-diamine], the negative-log IC50 (pIC50) is over 7.30.

Source of the values: patent publication US20240174647A1 (NEURON23, INC., priority 2022, published 2024).
